Measurements as given in patent US20240270821A1, “GIP/GLP1/GCG TRI-RECEPTOR AGONISTS AND USES THEREOF” (priority 2023, published 2024).
Read-outs that look alike come from different tables or passages of the source. Starred links: 1 amine or outer side, 2 acyl side, 3 side chain; linkers in the order of their positions; H or OH if unused. Non-standard residues stand in square brackets, D forms with d. Groups on a side chain read outwards from the residue. *: point of attachment. C18 diacid = O=C(O)CCCCCCCCCCCCCCCCC(=O)*; αMePhe(2-F) = C[C@](N)(Cc1ccccc1F)C(=O)O; γGlu = O=C(O)[C@H](CCC(=O)[*:2])N[*:1]; αMe4Pal = C[C@](N)(Cc1ccncc1)C(=O)O; αMeY = C[C@](N)(Cc1ccc(O)cc1)C(=O)O; 4Pal = N[C@@H](Cc1ccncc1)C(=O)O; αMeL = CC(C)C[C@](C)(N)C(=O)O; αMeS = C[C@](N)(CO)C(=O)O; Orn = NCCC[C@H](N)C(=O)O; Aib = CC(C)(N)C(=O)O

What was measured:
Type in all cases: cell-based
[1] = biological target: human GcgR (Homo sapiens, UniProt P47871); assay: Functional cAMP activity in the presence of 1% HSA; settings: read-out: cAMP Rel EC50, hGcgR
Chain of human GcgR (P47871 26-477): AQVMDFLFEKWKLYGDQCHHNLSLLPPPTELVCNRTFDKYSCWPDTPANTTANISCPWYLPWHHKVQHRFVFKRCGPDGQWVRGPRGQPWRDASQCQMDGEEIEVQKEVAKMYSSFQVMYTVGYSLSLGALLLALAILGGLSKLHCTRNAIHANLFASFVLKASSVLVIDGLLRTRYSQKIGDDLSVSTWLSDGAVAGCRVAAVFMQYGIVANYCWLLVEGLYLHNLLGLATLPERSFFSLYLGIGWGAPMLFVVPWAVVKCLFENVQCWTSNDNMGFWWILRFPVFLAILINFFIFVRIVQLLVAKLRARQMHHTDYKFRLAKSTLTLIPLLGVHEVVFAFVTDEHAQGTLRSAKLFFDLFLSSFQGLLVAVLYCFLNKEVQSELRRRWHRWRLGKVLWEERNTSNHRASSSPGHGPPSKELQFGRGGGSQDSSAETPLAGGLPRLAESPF

[2] = biological target: T1, hGIPR (Homo sapiens, UniProt P48546); assay: Functional cAMP activation in the presence of 0.1% casein (no HSA); settings: read-out: Relative cAMP EC50, hGIPR;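 note: intracellular cAMP rise after 30 min at 37 °C read by HTRF against a standard curve, scaled between buffer alone (0%) and top control ligand concentration (100%), four-parameter fit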
T1 sequence (P48546 22-466): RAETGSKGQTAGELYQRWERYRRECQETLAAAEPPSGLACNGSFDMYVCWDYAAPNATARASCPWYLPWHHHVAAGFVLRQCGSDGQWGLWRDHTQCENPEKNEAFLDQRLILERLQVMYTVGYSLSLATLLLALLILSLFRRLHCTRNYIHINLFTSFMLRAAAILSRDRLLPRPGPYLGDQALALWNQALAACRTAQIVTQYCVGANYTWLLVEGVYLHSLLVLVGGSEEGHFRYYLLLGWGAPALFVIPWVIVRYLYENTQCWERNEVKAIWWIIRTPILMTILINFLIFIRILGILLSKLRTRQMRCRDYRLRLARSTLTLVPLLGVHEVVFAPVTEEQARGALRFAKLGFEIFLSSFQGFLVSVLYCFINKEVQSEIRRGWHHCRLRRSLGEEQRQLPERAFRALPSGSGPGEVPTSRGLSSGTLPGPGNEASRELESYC

[3] = biological target: T1, hGIPR; assay: Functional cAMP activity in the presence of 1% HSA; settings: read-out: cAMP Rel EC50, hGIPR
[4] = biological target: T2, hGLP-1R (Homo sapiens, UniProt P43220); assay: Functional cAMP activation in the presence of 0.1% casein (no HSA); settings: read-out: Relative cAMP EC50, hGLP-1R;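 note: intracellular cAMP rise after 30 min at 37 °C read by HTRF, normalized between buffer only (0%) and maximal control ligand (100%), four-parameter variable-slope fit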
T2 sequence (P43220 24-463): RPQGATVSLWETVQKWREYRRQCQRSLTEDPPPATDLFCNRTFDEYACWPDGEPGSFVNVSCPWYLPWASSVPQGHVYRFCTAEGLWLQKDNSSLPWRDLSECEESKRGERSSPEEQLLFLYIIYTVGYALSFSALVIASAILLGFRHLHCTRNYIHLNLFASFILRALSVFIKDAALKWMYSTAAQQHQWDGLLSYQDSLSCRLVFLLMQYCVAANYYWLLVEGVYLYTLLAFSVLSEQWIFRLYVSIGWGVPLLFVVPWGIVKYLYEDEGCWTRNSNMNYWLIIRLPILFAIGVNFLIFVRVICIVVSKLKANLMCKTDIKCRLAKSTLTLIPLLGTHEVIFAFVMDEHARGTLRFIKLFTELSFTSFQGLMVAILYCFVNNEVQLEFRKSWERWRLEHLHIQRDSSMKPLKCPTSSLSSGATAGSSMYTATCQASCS

[5] = biological target: hGcgR (Homo sapiens, UniProt P47871); assay: as above; settings: read-out: Relative cAMP EC50, hGcgR;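 note: intracellular cAMP rise after 30 min at 37 °C, read by HTRF against a cAMP standard curve, scaled from buffer only (0%) to maximal control ligand response (100%)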
Chain of hGcgR (P47871 26-477): as the sequence (P47871 26-477) above

[6] = biological target: T2, hGLP-1R; assay: Functional cAMP activity in the presence of 1% HSA; settings: read-out: cAMP Rel EC50, hGLP-1R
[7] = 0.1% casein, no HSA, geometric mean

| Substance | EC50 [1] | EC50 [2] | EC50 [3] | EC50 [4] | EC50 [5] | EC50 [6] | EC50 [2, 7] | EC50 [4, 7] | EC50 [5, 7] |
| --- | --- | --- | --- | --- | --- | --- | --- | --- | --- |
| H-Y[Aib]QGT[αMePhe(2-F)]TSD[4Pal][αMeS]I[αMeL]LD[Orn]K([γGlu-γGlu-C18 diacid])AQ[Aib][Orn]FI[dE][αMeY]LAEGGPSSGEPPPSGAEE-NH2 [Example 591] | 234 nM | 0.0579 nM | 3 nM | 0.773 nM | 4.67 nM | 44.5 nM |  |  |  |
| H-Y[Aib]QGT[αMePhe(2-F)]TSD[4Pal][αMeS]I[αMeL]LD[Orn]K([γGlu-γGlu-C18 diacid])AQ[Aib][Orn]FI[dE][αMeY]LAEGGPSSGEPPPSGEEE-NH2 [Example 592] | 195 nM | 0.0971 nM | 4.05 nM | 1.12 nM | 4.25 nM | 55.6 nM |  |  |  |
| H-Y[Aib]QGT[αMePhe(2-F)]TSD[4Pal][αMeS]I[αMeL]LD[Orn]K([γGlu-γGlu-C18 diacid])AQ[Aib][Orn]FI[dE][αMeY]LAEGGPSSGEPPPSGGEE-NH2 [Example 590] | 309 nM | 0.105 nM | 4.25 nM | 0.89 nM | 4.34 nM | 58.7 nM |  |  |  |
| H-Y[Aib]QGT[αMePhe(2-F)]TSD[4Pal][αMeS]I[αMeL]LD[Orn]K([γGlu-γGlu-C18 diacid])AQ[Aib][Orn]FI[dE][αMeY]LAEGGPSSGEPPPSGSEE-NH2 [Example 589] | 289 nM | 0.0672 nM | 3.83 nM | 0.713 nM | 4.11 nM | 44.4 nM |  |  |  |
| H-Y[Aib]QGT[αMePhe(2-F)]TSD[4Pal][αMeS]I[αMeL]LD[Orn]K([γGlu-γGlu-C18 diacid])AQ[Aib][Orn]FI[dE][αMeY]LAEGGPSSGEPPPSGTE-NH2 [Example 544] | 171 nM | 0.041 nM | 2.4 nM | 0.623 nM | 2.71 nM | 43 nM |  |  |  |
| H-Y[Aib]QGT[αMePhe(2-F)]TSD[4Pal][αMeS]I[αMeL]LD[Orn]K([γGlu-γGlu-C18 diacid])AQ[Aib][Orn]FI[dE][αMeY]LAEGGPSSGEPPPSGTGE-NH2 [Example 545] | 180 nM | 0.0432 nM | 2.74 nM | 0.602 nM | 2.71 nM | 40.2 nM |  |  |  |
| H-Y[Aib]QGT[αMePhe(2-F)]TSD[4Pal][αMeS]I[αMeL]LD[Orn]K([γGlu-γGlu-C18 diacid])AQ[Aib][Orn]FI[dE][αMeY]LIEGGPSSGEPPPSEG-NH2 [Example 480] | 65.5 nM | 0.0107 nM | 0.722 nM | 0.215 nM | 1.47 nM | 8.39 nM |  |  |  |
| H-Y[Aib]QGT[αMePhe(2-F)]TSD[4Pal][αMeS]I[αMeL]LD[Orn]K([γGlu-γGlu-C18 diacid])AQ[Aib][Orn]FI[dE][αMeY]LQEGGPSSGEPPPEGEEE-NH2 [Example 588] | 259 nM | 0.0777 nM | 2.86 nM | 0.613 nM | 4.72 nM | 34.1 nM |  |  |  |
| H-Y[Aib]QGT[αMePhe(2-F)]TSD[4Pal][αMeS]I[αMeL]LD[Orn]K([γGlu-γGlu-C18 diacid])AQ[Aib][Orn]FI[dE][αMeY]LQEGGPSSGEPPPEGSEE-NH2 [Example 585] | 436 nM | 0.0801 nM | 3.93 nM | 0.601 nM | 6.25 nM | 38.6 nM |  |  |  |
| H-Y[Aib]QGT[αMePhe(2-F)]TSD[4Pal][αMeS]I[αMeL]LD[Orn]K([γGlu-γGlu-C18 diacid])AQ[Aib][Orn]FI[dE][αMeY]LQEGGPSSGEPPPSGTEE-NH2 [Example 572] | 330 nM | 0.0465 nM | 3.13 nM | 0.366 nM | 3.48 nM | 30.4 nM |  |  |  |
| H-Y[Aib]QGT[αMePhe(2-F)]TSD[4Pal][αMeS]I[αMeL]LD[Orn]K([γGlu-γGlu-C18 diacid])AQ[Aib][Orn]FI[dE][αMeY]LQEGGPSSGEPPPSGTEEE-NH2 [Example 573] | 388 nM | 0.0342 nM | 3.15 nM | 0.416 nM | 4.02 nM | 31.6 nM |  |  |  |
| H-Y[Aib]QGT[αMePhe(2-F)]TSD[4Pal][αMeS]I[αMeL]LD[Orn]K([γGlu-γGlu-C18 diacid])AQ[Aib][Orn]FI[dE][αMeY]LSEGGPSSGEPPPSGAEE-NH2 [Example 567] | 521 nM | 0.165 nM | 13.4 nM | 1.07 nM | 5.89 nM | 102 nM |  |  |  |
| H-Y[Aib]QGT[αMePhe(2-F)]TSD[4Pal][αMeS]I[αMeL]LD[Orn]K([γGlu-γGlu-C18 diacid])AQ[Aib][Orn]FI[dE][αMeY]LSEGGPSSGEPPPSGGE-NH2 [Example 559] | 323 nM | 0.119 nM | 9.15 nM | 0.542 nM | 4.07 nM | 49.7 nM |  |  |  |
| H-Y[Aib]QGT[αMePhe(2-F)]TSD[4Pal][αMeS]I[αMeL]LD[Orn]K([γGlu-γGlu-C18 diacid])AQ[Aib][Orn]FI[dE][αMeY]LSEGGPSSGEPPPSGGEE-NH2 [Example 568] | 477 nM | 0.125 nM | 13.2 nM | 0.986 nM | 6.13 nM | 116 nM |  |  |  |
| H-Y[Aib]QGT[αMePhe(2-F)]TSD[4Pal][αMeS]I[αMeL]LD[Orn]K([γGlu-γGlu-C18 diacid])AQ[Aib][Orn]FI[dE][αMeY]LSEGGPSSGEPPPSGQEE-NH2 [Example 570] | 648 nM | 0.186 nM | 13.6 nM | 1.03 nM | 5.88 nM | 95.1 nM |  |  |  |
| H-Y[Aib]QGT[αMePhe(2-F)]TSD[4Pal][αMeS]I[αMeL]LD[Orn]K([γGlu-γGlu-C18 diacid])AQ[Aib][Orn]FI[dE][αMeY]LSEGGPSSGEPPPSGSE-NH2 [Example 560] | 355 nM | 0.113 nM | 7.94 nM | 0.883 nM | 3.8 nM | 52 nM |  |  |  |
| H-Y[Aib]QGT[αMePhe(2-F)]TSD[4Pal][αMeS]I[αMeL]LD[Orn]K([γGlu-γGlu-C18 diacid])AQ[Aib][Orn]FI[dE][αMeY]LSEGGPSSGEPPPSGTE-NH2 [Example 517] | 337 nM | 0.158 nM | 9.12 nM | 0.646 nM | 4.69 nM | 50 nM |  |  |  |
| H-Y[Aib]QGT[αMePhe(2-F)]TSD[4Pal][αMeS]I[αMeL]LD[Orn]K([γGlu-γGlu-C18 diacid])AQ[Aib][Orn]FI[dE][αMeY]LSEGGPSSGEPPPSGTEE-NH2 [Example 561] | 544 nM | 0.212 nM | 10.1 nM | 1.13 nM | 5.43 nM | 76.1 nM |  |  |  |
| H-Y[Aib]QGT[αMePhe(2-F)]TSD[4Pal][αMeS]I[αMeL]LD[Orn]K([γGlu-γGlu-C18 diacid])AQ[Aib][Orn]FI[dE][αMeY]LSEGGPSSGEPPPSGTEEE-NH2 [Example 562] | 427 nM | 0.284 nM | 10.2 nM | 1.67 nM | 6 nM | 89.5 nM |  |  |  |
| H-Y[Aib]QGT[αMePhe(2-F)]TSD[4Pal][αMeS]I[αMeL]LD[Orn]K([γGlu-γGlu-C18 diacid])AQ[Aib][Orn]FI[dE][αMeY]LSEGGPSSGEPPPSGTGE-NH2 [Example 518] | 265 nM | 0.129 nM | 7.1 nM | 0.867 nM | 3.93 nM | 51 nM |  |  |  |
| H-Y[Aib]QGT[αMePhe(2-F)]TSD[4Pal][αMeS]I[αMeL]LD[Orn]K([γGlu-γGlu-C18 diacid])AQ[Aib][Orn]FI[dE][αMeY]LTEGGPSSGEPPPEGTEEE-NH2 [Example 598] | 457 nM | 0.0927 nM | 3.49 nM | 0.886 nM | 8.79 nM | 47.3 nM |  |  |  |
| H-Y[Aib]QGT[αMePhe(2-F)]TSD[4Pal][αMeS]I[αMeL]LD[Orn]K([γGlu-γGlu-C18 diacid])AQ[Aib][Orn]FI[dE][αMeY]LTEGGPSSGEPPPSGTE-NH2 [Example 542] | 256 nM | 0.0336 nM | 1.69 nM | 0.388 nM | 5.03 nM | 29.6 nM |  |  |  |
| H-Y[Aib]QGT[αMePhe(2-F)]TSD[4Pal][αMeS]I[αMeL]LD[Orn]K([γGlu-γGlu-C18 diacid])AQ[Aib][Orn]FI[dE][αMeY]LTEGGPSSGEPPPSGTGE-NH2 [Example 543] | 300 nM | 0.0319 nM | 1.88 nM | 0.41 nM | 4.56 nM | 32 nM |  |  |  |
| H-Y[Aib]QGT[αMePhe(2-F)]TSD[4Pal][αMeS]I[αMeL]LD[Orn]K([γGlu-γGlu-C18 diacid])AQ[αMe4Pal]EFI[dE][αMeY]LIEGGPPS[Aib][Orn]PPP[Orn]GE-NH2 [Example 1227] | 199 nM |  | 0.527 nM |  |  | 39.5 nM | 0.00621 nM | 0.387 nM | 1.99 nM |
